The results in this text go back to patent US20260285872A1, “COMPOUNDS AND METHODS FOR DEGRADING GSPT1” (priority 2023, published 2026).

The test relates to NCI-H1155 cells. Description: NSCLC cell viability, CellTiter-Glo, NCI-H1155 cells. The note with it: Homo sapiens; NCI-H1155 cells, CellTiter-Glo, 72 hours of treatment; read-out: Cell viability classification (NCI-H1155). Type of test: cell-based. A general note: ATP-based viability assays read luminescence as a measure of living cells.
In the case of `O=C1CCC(N2Cc3cc(C(=O)N4CC5(CC5)c5ccc(F)cc54)ccc3C2=O)C(=O)N1` (centres unmarked) [Example 105, 3-(5-(6′-fluorospiro[cyclopropane-1,3′-indoline]-1′-carbonyl)-1-oxoisoindolin-2-yl)piperidine-2,6-dione], the IC50 is below 10 nM.
To `C[C@H]1CN(C(=O)c2ccc3c(c2)CN(C2CCC(=O)NC2=O)C3=O)c2cc(F)ccc21` (stereo partly drawn) [Example 132, 3-(5-((R)-6-fluoro-3-methylindoline-1-carbonyl)-1-oxoisoindolin-2-yl)piperidine-2,6-dione] belongs below 10 nM.
In the case of `Cc1c(N2CCC(=O)NC2=O)ccc2ccc(C(=O)N3CCc4ccc(F)cc43)cc12` [Example 134, 1-(7-(6-fluoroindoline-1-carbonyl)-1-methylnaphthalen-2-yl)dihydropyrimidine-2,4(1H,3H)-dione], the IC50 was in the range of 10 to 100 nM.
To `C[C@@H]1c2c(F)cccc2CN1C(=O)c1ccc2c(c1)CN(C1CCC(=O)NC1=O)C2=O` (stereo partly drawn) [Example 139, 3-(5-((R)-7-fluoro-1-methylisoindoline-2-carbonyl)-1-oxoisoindolin-2-yl)piperidine-2,6-dione] belongs 10 to 100 nM; to `C[C@H]1c2c(F)cccc2CN1C(=O)c1ccc2c(c1)CN(C1CCC(=O)NC1=O)C2=O` (stereo partly drawn) [Example 140, 3-(5-((S)-7-fluoro-1-methylisoindoline-2-carbonyl)-1-oxoisoindolin-2-yl)piperidine-2,6-dione], above 1000 nM.
Take `C[C@H]1c2cccc(F)c2CN1C(=O)c1ccc2c(c1)CN(C1CCC(=O)NC1=O)C2=O` (stereo partly drawn) [Example 141, 3-(5-((S)-4-fluoro-1-methylisoindoline-2-carbonyl)-1-oxoisoindolin-2-yl)piperidine-2,6-dione]: the IC50 was in the range of 100 to 1000 nM.
In the case of `C[C@@H]1c2cccc(F)c2CN1C(=O)c1ccc2c(c1)CN(C1CCC(=O)NC1=O)C2=O` (stereo partly drawn) [Example 142, 3-(5-((R)-4-fluoro-1-methylisoindoline-2-carbonyl)-1-oxoisoindolin-2-yl)piperidine-2,6-dione] it was above 1000 nM; in that of `O=C1CCN(c2ccc3cc(COC(=O)Nc4cc(OC(F)(F)F)ccc4F)ccc3c2)C(=O)N1` [Example 143, (6-(2,4-dioxotetrahydropyrimidin-1(2H)-yl)naphthalen-2-yl)methyl(2-fluoro-5-(trifluoromethoxy)phenyl)carbamate], 100 to 1000 nM; in that of `O=C1CCC(N2Cc3cc(C(=O)N4Cc5ccc(F)c(Cl)c5C4)ccc3C2=O)C(=O)N1` (centres unmarked) [Example 144, 3-(5-(4-chloro-5-fluoroisoindoline-2-carbonyl)-1-oxoisoindolin-2-yl)piperidine-2,6-dione], 10 to 100 nM.
With `O=C1CCC(c2nc3ccc(C(=O)N4CCc5ccccc5C4)cc3o2)C(=O)N1` (centres unmarked) [Example 146, 3-(6-(1,2,3,4-tetrahydroisoquinoline-2-carbonyl)benzo[d]oxazol-2-yl)piperidine-2,6-dione], the IC50 fell in the range of 100 to 1000 nM.
To `O=C1CCC(N2Cc3cc(C(=O)N4Cc5cc(Cl)cc(F)c5C4)ccc3C2=O)C(=O)N1` (centres unmarked) [Example 148, 3-(5-(6-chloro-4-fluoroisoindoline-2-carbonyl)-1-oxoisoindolin-2-yl)piperidine-2,6-dione] belongs 10 to 100 nM; to `Cc1ccc2c(c1F)CN(C(=O)c1ccc3c(c1)CN(C1CCC(=O)NC1=O)C3=O)C2` (centres unmarked) [Example 149, 3-(5-(4-fluoro-5-methylisoindoline-2-carbonyl)-1-oxoisoindolin-2-yl)piperidine-2,6-dione], 10 to 100 nM; to `N#Cc1ccc2c(c1F)CN(C(=O)c1ccc3c(c1)CN(C1CCC(=O)NC1=O)C3=O)C2` (centres unmarked) [Example 150, 2-(2-(2,6-dioxopiperidin-3-yl)-1-oxoisoindoline-5-carbonyl)-4-fluoroisoindoline-5-carbonitrile], 100 to 1000 nM.
On to `O=C1CCC(N2Cc3cc(C(=O)N4Cc5cccc(OC(F)(F)F)c5C4)ccc3C2=O)C(=O)N1` (centres unmarked) [Example 151, 3-(1-oxo-5-(4-(trifluoromethoxy)isoindoline-2-carbonyl)isoindolin-2-yl)piperidine-2,6-dione], for which the IC50 fell in the range of 10 to 100 nM.
For `O=C1CCC(N2Cc3cc(C(=O)N4Cc5cc(F)cc(Cl)c5C4)ccc3C2=O)C(=O)N1` (centres unmarked) [Example 152, 3-(5-(4-chloro-6-fluoroisoindoline-2-carbonyl)-1-oxoisoindolin-2-yl)piperidine-2,6-dione], the IC50 lay within 10 to 100 nM.
In the case of `O=C1CCC(c2nc3ccc(C(=O)N4Cc5cccc(OC(F)(F)F)c5C4)cc3o2)C(=O)N1` (centres unmarked) [Example 153, 3-(6-(4-(trifluoromethoxy)isoindoline-2-carbonyl)benzo[d]oxazol-2-yl)piperidine-2,6-dione], the IC50 is above 1000 nM.
To `O=C1CCC(N2Cc3cc(C(=O)N4CC5(CNC5)c5ccc(F)cc54)ccc3C2=O)C(=O)N1` (centres unmarked) [Example 154, 3-(5-(6′-fluorospiro[azetidine-3,3′-indoline]-1′-carbonyl)-1-oxoisoindolin-2-yl)piperidine-2,6-dione] belongs above 1000 nM; to `Cc1cc(F)c2c(c1)CN(C(=O)c1ccc3c(c1)CN(C1CCC(=O)NC1=O)C3=O)C2` (centres unmarked) [Example 155, 3-(5-(4-fluoro-6-methylisoindoline-2-carbonyl)-1-oxoisoindolin-2-yl)piperidine-2,6-dione], below 10 nM; to `N#Cc1cc(F)c2c(c1)CN(C(=O)c1ccc3c(c1)CN(C1CCC(=O)NC1=O)C3=O)C2` (centres unmarked) [Example 156, 2-(2-(2,6-dioxopiperidin-3-yl)-1-oxoisoindoline-5-carbonyl)-7-fluoroisoindoline-5-carbonitrile], 10 to 100 nM.
As for `O=C1CCC(N2Cc3cc(C(=O)N4CC5(CCC(F)(F)CC5)C4)ccc3C2=O)C(=O)N1` (centres unmarked) [Example 157, 3-(5-(7,7-difluoro-2-azaspiro[3.5]nonane-2-carbonyl)-1-oxoisoindolin-2-yl)piperidine-2,6-dione], the IC50 was 100 to 1000 nM.
To `C[C@@H]1c2c(F)cccc2CN1C(=O)c1ccc2nc(C3CCC(=O)NC3=O)oc2c1` (stereo partly drawn) [Example 159, 3-(6-((R)-7-fluoro-1-methylisoindoline-2-carbonyl)benzo[d]oxazol-2-yl)piperidine-2,6-dione] belongs above 1000 nM; to `C[C@H]1c2c(F)cccc2CN1C(=O)c1ccc2nc(C3CCC(=O)NC3=O)oc2c1` (stereo partly drawn) [Example 160, 3-(6-((S)-7-fluoro-1-methylisoindoline-2-carbonyl)benzo[d]oxazol-2-yl)piperidine-2,6-dione], 100 to 1000 nM.
In the case of `COc1cccc2c1CN(C(=O)c1ccc3nc(C4CCC(=O)NC4=O)oc3c1)C2` (centres unmarked) [Example 162, 3-(6-(4-methoxyisoindoline-2-carbonyl)benzo[d]oxazol-2-yl)piperidine-2,6-dione] it was above 1000 nM; in that of `O=C1CCC(N2Cc3cc(C(=O)N4CC5(CCC(F)(F)C5)C4)ccc3C2=O)C(=O)N1` (centres unmarked) [Example 163, 3-(5-(6,6-difluoro-2-azaspiro[3.4]octane-2-carbonyl)-1-oxoisoindolin-2-yl)piperidine-2,6-dione], 100 to 1000 nM; in that of `O=C1CCC(N2Cc3cc(C(=O)N4CC5(C4)CC(F)(c4ccc(F)cc4)C5)ccc3C2=O)C(=O)N1` (centres unmarked) [Example 168, 3-(5-(6-fluoro-6-(4-fluorophenyl)-2-azaspiro[3.3]heptane-2-carbonyl)-1-oxoisoindolin-2-yl)piperidine-2,6-dione], 100 to 1000 nM.
To `O=C1CCC(N2Cc3cc(C(=O)N4CC(F)(c5ccc(F)cc5)C4)ccc3C2=O)C(=O)N1` (centres unmarked) [Example 170, 3-(5-(3-fluoro-3-(4-fluorophenyl)azetidine-1-carbonyl)-1-oxoisoindolin-2-yl)piperidine-2,6-dione] belongs 100 to 1000 nM; to `O=C1CCC(c2nc3ccc(C(=O)N4CCc5cc(Cl)ccc5C4)cc3o2)C(=O)N1` (centres unmarked) [Example 171, 3-(6-(6-chloro-1,2,3,4-tetrahydroisoquinoline-2-carbonyl)benzo[d]oxazol-2-yl)piperidine-2,6-dione], 100 to 1000 nM.
Consider `O=C1CCC(N2Cc3cc(C(=O)N4Cc5ccc(Cl)c(F)c5C4)ccc3C2=O)C(=O)N1` (centres unmarked) [Example 172, 3-(5-(5-chloro-4-fluoroisoindoline-2-carbonyl)-1-oxoisoindolin-2-yl)piperidine-2,6-dione], for which the IC50 is 10 to 100 nM.
Regarding `N#Cc1cccc2c1CN(C(=O)c1ccc3nc(C4CCC(=O)NC4=O)oc3c1)C2` (centres unmarked) [Example 173, 2-(2-(2,6-dioxopiperidin-3-yl)benzo[d]oxazole-6-carbonyl)isoindoline-4-carbonitrile], the IC50 lay in the range of 100 to 1000 nM.
To `O=C1CCC(c2nc3ccc(C(=O)N4CCc5c(F)cc(F)cc54)cc3o2)C(=O)N1` (centres unmarked) [Example 175, 3-(6-(4,6-difluoroindoline-1-carbonyl)benzo[d]oxazol-2-yl)piperidine-2,6-dione] belongs 100 to 1000 nM; to `O=C1CCC(c2nc3ccc(C(=O)N4Cc5c(F)ccc(F)c5C4)cc3o2)C(=O)N1` (centres unmarked) [Example 177, 3-(6-(4,7-difluoroisoindoline-2-carbonyl)benzo[d]oxazol-2-yl)piperidine-2,6-dione], 100 to 1000 nM; to `O=C1CCC(c2nc3ccc(C(=O)N4CCc5cccc(Cl)c5C4)cc3o2)C(=O)N1` (centres unmarked) [Example 179, 3-(6-(8-chloro-1,2,3,4-tetrahydroisoquinoline-2-carbonyl)benzo[d]oxazol-2-yl)piperidine-2,6-dione], 100 to 1000 nM.
As to `O=C1CCC(c2nc3ccc(C(=O)N4CCc5ccc(Cl)cc5C4)cc3o2)C(=O)N1` (centres unmarked) [Example 180, 3-(6-(7-chloro-1,2,3,4-tetrahydroisoquinoline-2-carbonyl)benzo[d]oxazol-2-yl)piperidine-2,6-dione], the IC50 was above 1000 nM.
To `O=C1CCC(c2nc3ccc(C(=O)N4CCc5c(Cl)cccc5C4)cc3o2)C(=O)N1` (centres unmarked) [Example 181, 3-(6-(5-chloro-1,2,3,4-tetrahydroisoquinoline-2-carbonyl)benzo[d]oxazol-2-yl)piperidine-2,6-dione] belongs above 1000 nM.
As for `O=C1CCC(N2Cc3cc(C(=O)N4CC5(CC(C(F)(F)F)C5)C4)c(F)cc3C2=O)C(=O)N1` (centres unmarked) [Example 183, 3-(6-fluoro-1-oxo-5-(6-(trifluoromethyl)-2-azaspiro[3.3]heptane-2-carbonyl)isoindolin-2-yl)piperidine-2,6-dione], the IC50 lay within 10 to 100 nM.
